Data reported in patent US20230310352A1, “NOVEL COMPOSITIONS AND METHODS FOR THE TREATMENT OF LUNG FIBROSIS” (LAURENT PHARMACEUTICALS INC., priority 2020, published 2023).
Entries after “also recorded” stand apart in the source; their conditions may differ.

How the values were obtained:
[1] = system: Normal human lung fibroblast cells (NHLF cells, ATCC CRL-7000); assay: α-SMA protein by ELISA after TGF-β1 exposure in NHLF; format: cell-based; settings: TGF-β1 2 ng/mL + fenretinide 1, 2, 3, 4 μM, 3 days
Experimental: NHLF cells were incubated for 3 days at 37° C. and treated with TGF-β1 (2 ng/mL) or TGF-β1 (2 ng/mL)+fenretinide (1, 2, 3, 4 μM). At the end of the 3 day-treatment period, media was collected in identified tubes, centrifuged at 2,000×g for 20 minutes and stored at −80° C. Cells were collected using trypsin, transferred in identified tubes and centrifuged at 1,000×g for 5 minutes. Cells were then washed twice in phosphate buffered saline (PBS) 1X prior to be resuspended in ELISA lysis buffer. α-SMA protein contents were determined using Abcam ELISA detection kit (Ab240678). The experiment was performed in quadruplicate.

[2] = system: human lung microtissues; assay: Immunostaining of fibrotic markers (α-SMA, pro-collagen type 1) in TGF-β1 fibrosis-induced 3D lung microtissues; format: cell-based
Source text: To confirm the findings of the NHLF cells, the effects of fenretinide administration was observed on a newly developed in vitro model arrays of 3D microtissues that are suspended over multiple flexible micropillars. Progression of lung fibrosis is characterized by stiffening of the membranous tissue that makes up the alveolar air sacs, caused by the accumulation of highly contractile and collagen-producing myofibroblasts. To model the physio-pathological characteristics of lung fibrosis in vitro, different experimental systems have been developed. Planar 2D culture-based assays offer multiparameter readout of fibrotic cellular markers, but they have very limited capacity to measure or reproduce tissue mechanics. In order to recapitulate dynamic changes in tissue mechanics during fibrogenesis, a newly validated membranous human lung microtissues array was used, that models key biomechanical events occurred during lung fibrogenesis, including progressive stiffening and contraction of alveolar tissue, decline in alveolar tissue compliance, and traction force-induced bronchial dilation. This new 3D array of membranous lung microtissues model of lung fibrosis had been validated using two FDA-approved antifibrosis drugs, pirfenidone and nintedanib. This model was further extended to larger lung tissue arrays, to mimic the traction on alveoli as a model of bronchiectasis. (Asmani M. et al, 2018, Nature Com, 9:2066)
The lung microtissue chip system used is based on bio-MEMS technology that can assemble 3D cell-populated submillimeter microtissues in arrays of polydimethylsiloxane (PDMS) microwells. In each microwell, human lung fibroblasts or epithelial cells spontaneously contract and assemble the matrix proteins, such as collagen, into microtissues that anchor on top of an array of micropillars. The flexible micropillars serve as in situ force sensors that can report the contractile force generated by the tissue. […]
These observations are further described in Table 1, which presents fenretinide induced reduction of alpha smooth muscle actin (α-SMA) and pro-collagen expression and contractile forces induced by TGF-β1 in lung microtissue in preventative and therapeutic treatment measured as a percentage.

[3] = system: VEGF; assay: Mouse model of LPS-induced acute respiratory distress syndrome, BALF VEGF; format: in vivo; settings: inhaled fenretinide, LPS-induced ARDS mouse model
[4] = system: human lung microtissues; assay: Contractile force of TGF-β1 treated 3D lung microtissues (micropillar deflection); format: cell-based; settings: for contractile force, reduction vs TGF-β1 only treated condition, percentage change: Day 6
Source text: The lung microtissue chip system used is based on bio-MEMS technology that can assemble 3D cell-populated submillimeter microtissues in arrays of polydimethylsiloxane (PDMS) microwells. In each microwell, human lung fibroblasts or epithelial cells spontaneously contract and assemble the matrix proteins, such as collagen, into microtissues that anchor on top of an array of micropillars. The flexible micropillars serve as in situ force sensors that can report the contractile force generated by the tissue.
The effect of fenretinide on the inhibition of microtissue contractile force in a preventative treatment regimen was also measured. Increased contractile force is one of the main biomechanical features associated with fibrosis progression. The spontaneous contraction force generated by individual microtissues was determined from the deflection of micropillars based on cantilever bending theory. Micropillar deflection was measured using phase contrast microscopy, by comparing the deflected position of the centroid of each pillar top to the centroid of its base. Microtissue contraction force was measured for the same batch of samples on a daily basis for each pharmacological condition. The micropillar spring constant was determined based on the actual geometry of the micropillar and the elastic modulus of the PDMS. […] In contrast, the force developed by untreated samples plateaued after 1 day at around 80 μN. […] The 4 μM fenretinide dose reduced the contractile force by Day 6 to around 70 μN, a reduction of about 38% as compared to TGF-β1 treated condition.
The effect of fenretinide 4 μM dose on the inhibition of microtissue contractile force was tested in a therapeutic treatment regimen. Fibrosis was first allowed to progress for three days under the induction of TGF-β1 (5 ng/ml) and fenretinide was then added from day 3 to day 6 to model a therapeutic treatment. […] TGF-β1 present in media for 3 days and absent for following 3 days (mean±SD, n=8). However, on day 6 as compared to day 3, fenretinide at 2 μM reduced the tissue contractility by 10%, 4 μM fenretinide by 15% and the combination of 2 μM fenretinide and 1.6 mM pirfenidone by 26%.

[5] = system: Normal human lung fibroblast cells (NHLF cells, ATCC CRL-7000); assay: COL1A1 mRNA transcript by qRT-PCR after TGF-β1 exposure in NHLF; format: cell-based; settings: TGF-β1 2 ng/mL + fenretinide 1, 2, 3, 4 μM, 3 days
Experimental: NHLF cells were incubated for 3 days at 37° C. and treated with TGF-β1 (2 ng/mL) or TGF-β1 (2 ng/mL)+Fenretinide (1, 2, 3, 4 μM). At the end of the 3 day-treatment period, media was removed using a vacuum pump and total RNA was isolated using the TriReagent protocol (BioShop) and cDNA was obtained by reverse transcription using the SUPERSCRIPT® VILO®. COL1A1 transcript levels were determined by qRT-PCR using the Fast SyBR Master Mix and specific probes, and quantified following the ΔΔCT, normalized to PUM-1 expression as internal control. The experiments were performed in quadruplicate.

[6] = preventative treatment, 2 μM, 6 days
[7] = preventative treatment, 4 μM, 6 days
[8] = preventative, co-administered with TGF-β1 5 ng/ml for 6 days, 2 μM and 4 μM
[9] = therapeutic treatment, added day 3 to day 6, 2 μM
[10] = therapeutic treatment, added day 3 to day 6, 4 μM

SMILES: CC1=C(/C=C/C(C)=C/C=C/C(C)=C/C(=O)Nc2ccc(O)cc2)C(C)(C)CCC1 [fenretinide, 4-hydroxyphenyl retinamide]
- induction of fibrotic marker α-SMA protein levels (ELISA) [1]: attenuate and, at certain doses, completely abolish; also recorded: attenuates in a dose-dependent manner; also recorded: dose-dependent attenuation
- pro-collagen, reduction of expression induced by TGF-β1, percentage change [2, 6]: 88.0%
- α-SMA, reduction of expression induced by TGF-β1, percentage change [2, 6]: 45.0%
- pro-collagen, reduction of expression induced by TGF-β1, percentage change [2, 7]: 81.0%
- α-SMA, reduction of expression induced by TGF-β1, percentage change [2, 7]: 37.0%
- expression of pro-collagen type 1 (fluorescent intensity) [2, 8]: increasingly inhibited by increasing fenretinide concentrations
- expression of α-SMA (fluorescent intensity) [2, 8]: increasingly inhibited by increasing fenretinide concentrations
- pro-collagen, reduction of expression induced by TGF-β1, percentage change [2, 9]: 39.0%
- α-SMA, reduction of expression induced by TGF-β1, percentage change [2, 9]: 56.0%
- pro-collagen, reduction of expression induced by TGF-β1, percentage change [2, 10]: 58.0%
- α-SMA, reduction of expression induced by TGF-β1, percentage change [2, 10]: 72.0%
- bronchoalveolar lavage fluid (BALF) VEGF [3]: significant increase
- inhibition at 4 µM ([4]; Homo sapiens, therapeutic treatment, 4 μM, read-out: inhibition of contractile force as compared to TGF-β1 only treated condition (positive control)): 57%
- TGF-β1-induced increase in contractile force ([4]; preventative treatment, 2 μM and 4 μM): inhibit TGF-131-induced increase in contractile force in a dose-dependent manner
- microtissue contractile force ([4]; preventative treatment, 2 μM, 6-day measurement (TGF-β1 only around 130 μN, untreated around 80 μN)): 80-85 μN
- contractile force, reduction vs TGF-β1 only treated condition, percentage change ([4]; preventative treatment, 2 μM): about 28%
- contractile force, reduction vs TGF-β1 only treated condition, percentage change ([4]; preventative treatment, 2 μM, listed as Fenret): 28.0%
- contractile force, reduction vs TGF-β1 only treated condition, percentage change ([4]; preventative treatment, 4 μM): about 38%
- microtissue contractile force ([4]; preventative treatment, 4 μM, Day 6 (TGF-β1 only around 130 μN, untreated around 80 μN)): around 70 μN
- contractile force, reduction vs TGF-β1 only treated condition, percentage change ([4]; preventative treatment, 4 μM, listed as Fenret): 38.0%
- reduction of tissue contractility on day 6 as compared to day 3 ([4]; therapeutic treatment, 2 μM): 10%
- reduction of tissue contractility on day 6 as compared to day 3 ([4]; therapeutic treatment, 4 μM): 15%
- contractile force, reduction vs TGF-β1 +3/−3 group on day 6, percentage change [4, 9]: 34%
- contractile force, reduction vs TGF-β1 +3/−3 group on day 6, percentage change ([4]; therapeutic treatment, added day 3 to day 6, 2 μM, listed as Fenret): 34.0%
- contractile force, reduction vs TGF-β1 +3/−3 group on day 6, percentage change [4, 10]: 34%
- contractile force, reduction vs TGF-β1 +3/−3 group on day 6, percentage change ([4]; therapeutic treatment, added day 3 to day 6, 4 μM, listed as Fenret): 34.0%
- induction of fibrotic marker COL1A1 gene expression (qRT-PCR) [5]: attenuates, in a dose-dependent manner; also recorded: dose-dependent attenuation
